Measurements published in ChEMBL document CHEMBL5729562, “Proteasome activity enhancing compounds” (2023).
pIC50: −log10 of the molar value.

Target: Ubiquitin carboxyl-terminal hydrolase 14 (Homo sapiens, UniProt P54578)
Assay: Usp14 Inhibition Assay: Usp14 Inhibition Assay was described in B. H. Lee et al. Nature 2010, 467 (9), 179.

Ubiquitin carboxyl-terminal hydrolase 14, sequence (P54578 whole entry): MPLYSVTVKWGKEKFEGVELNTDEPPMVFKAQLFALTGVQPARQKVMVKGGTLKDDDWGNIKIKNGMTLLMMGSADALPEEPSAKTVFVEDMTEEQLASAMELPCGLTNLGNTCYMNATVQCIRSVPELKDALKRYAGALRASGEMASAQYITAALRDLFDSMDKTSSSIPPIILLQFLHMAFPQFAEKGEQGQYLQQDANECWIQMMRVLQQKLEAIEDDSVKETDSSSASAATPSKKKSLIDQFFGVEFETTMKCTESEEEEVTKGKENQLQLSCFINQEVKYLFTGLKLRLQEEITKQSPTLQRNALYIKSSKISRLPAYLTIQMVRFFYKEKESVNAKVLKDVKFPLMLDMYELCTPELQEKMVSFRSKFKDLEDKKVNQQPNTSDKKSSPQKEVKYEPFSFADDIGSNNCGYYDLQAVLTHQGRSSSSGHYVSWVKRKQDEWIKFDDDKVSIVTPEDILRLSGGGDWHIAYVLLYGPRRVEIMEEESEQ

| SMILES | pIC50 |
| --- | --- |
| Cc1c(C(=O)CN2C3CC4CC2CC(C3)O4)cc(CCCCC#N)n1-c1ccc(C#N)cc1 | > 7.30 |
| Cc1c(C(=O)CN2C3CCC2CC3)cc(C#CCCC#N)n1-c1ccc(C#N)cc1 | > 7.30 |
